Source: PMC8698657, “Absorption and Transport Characteristics and Mechanisms of Carnosic Acid” (Biology, 2021)
Several values for one entry are separate records, joined by “and”; a condition that tells them apart may be missing. Equal values may be shown once.

Experiments:
[1] = Tissue distribution of CA in mice by HPLC after oral gavage; assay type: in vivo; conditions: 50 mg/kg/daily oral gavage 7 days, 4 h after last gavage
Excerpt: (§1) The animal experiment protocol was approved by the Institutional Animal Care and Use Committee of Guangzhou Medical University (#GY2020-067, 30 July 2020). Male ICR mice aged 5–6 weeks were kept in a specific-pathogen-free environment with 12-h light/dark cycles. […] Both groups were allowed to eat and drink ad libitum. Four hours after the last gavage, the mice were anesthetized, and their eyeballs were removed for blood collection. They were sacrificed and immediately dissected in the supine position. Serum, major organs (heart, liver, lung, stomach, spleen, kidney, small intestine, cecum, and colon), and the contents of the stomach, small intestine, cecum, and colon were collected, weighed, and stored at −80 °C.
Tissue samples and the contents of the digestive tract were homogenized in ultrapure water at 55 Hz for 8 min. Tissue/content homogenate (1 mL) or serum (100 μL) was mixed with 1 mL of 50% methanol, and the mixture was vortexed for 2 min. The mixture was extracted with ethyl acetate three times (6, 3, and 3 mL of ethyl acetate) and vortexed again for 2 min. The sample was centrifuged at 5000 rpm/min at 4 °C for 15 min, and the upper organic phase was dried under vacuum. Then, it was dissolved in 5% phosphoric acid methanol solution and filtered through a 0.22 μm microporous membrane. Concentrations of CA in serum, tissue, and content samples were determined using HPLC. CA standard was added to all samples, and the recovery rate was calculated. The chromatographic conditions for HPLC analysis were as follows: C18 chromatographic column: 5 μm, 150 × 4.6 mm; column temperature: 25 °C; mobile phase: methanol/0.1% phosphoric acid solution at 85%/15%; flow rate: 1.0 mL/min; detection wavelength: 230 nm; injection volume: 10 μL.

[2] = Body weight, organ weights and appearance of CA-fed mice; assay type: in vivo; conditions: 50 mg/kg/daily oral gavage
Excerpt: as §1

CC(C)c1cc2c(c(O)c1O)[C@@]1(C(=O)O)CCCC(C)(C)[C@@H]1CC2 [CA, Carnosic acid]
Concentration of CA in Cecal content [1]: 0.15 nmol/g or mL and 0.15 ± 0.00 nmol/g or mL | Concentration of CA in Cecum [1]: 2965.1 nmol/g or mL and 2965.10 ± 3.31 nmol/g or mL | Concentration of CA in Colon [1]: 179.4 nmol/g or mL and 179.43 ± 0.26 nmol/g or mL | Concentration of CA in Colonic content [1]: 74.54 nmol/g or mL and 74.54 ± 0.21 nmol/g or mL | Concentration of CA in Gastric content [1]: 1.08 nmol/g or mL and 1.08 ± 0.00 nmol/g or mL | Concentration of CA in Heart [1]: 0.75 ± 0.00 nmol/g or mL | Concentration of CA in Kidney [1]: 0.66 ± 0.02 nmol/g or mL | Concentration of CA in Liver [1]: 10.56 ± 0.01 nmol/g or mL | Concentration of CA in Lung [1]: 1.68 ± 0.00 nmol/g or mL | Concentration of CA in Serum [1]: 15.22 ± 0.02 nmol/g or mL | Concentration of CA in Small intestine [1]: 1.87 nmol/g or mL and 1.87 ± 0.00 nmol/g or mL | Concentration of CA in Small intestine content [1]: 13.93 nmol/g or mL and 13.93 ± 0.01 nmol/g or mL | Concentration of CA in Spleen [1]: 13.42 ± 0.01 nmol/g or mL | Concentration of CA in Stomach [1]: 35.98 ± 0.09 nmol/g or mL | concentration at 4 h ([1]; male, ICR, mouse, serum, read-out: CA detected in serum): 15.2 µM | adverse effects [2]: not associated with noticeable adverse effects | body weight and weights of liver and spleen, CA-fed vs control mice [2]: no significant difference | Body Weight ([2]; week 1): 33.2 ± 0.9 g | Body Weight ([2]; week 2): 34.8 ± 2.5 g | Body Weight ([2]; week 3): 37.1 ± 1.8 g | Body Weight ([2]; week 4): 38.9 ± 2.4 g | Body Weight ([2]; week 5): 41.2 ± 3.1 g
